The values that follow come from US7067714B1 (priority 1999, dated 2006).

In one test the test system is N-type Ca channel. In kind it is cell-based, mouse.

For the molecule `NC1=N[C@H](O)[C@H]2[C@H]3O[C@]4(O)O[C@@H]([C@@H](O)[C@@]2(N1)[C@@H]4O)[C@]3(O)CO` [tetrodotoxin], the “increase in atrial muscle contractile force by nerve stimulus” value in the test on isolated mouse atrium is “completely inhibited”.

Turning to ω-conotoxin GVIA, the “influx of Ca2+ inhibited by ω-conotoxin GVIA” value in the test with N-type Ca channel is “not observed”.
